Measurements from paper PMC4171615, “Discovery of selective inhibitors of Glutaminase-2, which inhibit mTORC1, activate autophagy and inhibit proliferation in cancer cells” (Oncotarget, 2014).
Numbering of substitutions follows the chain as printed.

Experiments:
KGA_D520K = target: T1, KGA_D520K (Homo sapiens, UniProt O94925, D520K); experiment: Glutaminase activity assay, KGA mutant D520K; format: biochemical
T1 construct: a KGA cDNA fragment of 1644 bp (residues Leu123-Leu669); His-tag (N); made in house; host or cells: Escherichia coli
T1 sequence (O94925 123-669 D520K): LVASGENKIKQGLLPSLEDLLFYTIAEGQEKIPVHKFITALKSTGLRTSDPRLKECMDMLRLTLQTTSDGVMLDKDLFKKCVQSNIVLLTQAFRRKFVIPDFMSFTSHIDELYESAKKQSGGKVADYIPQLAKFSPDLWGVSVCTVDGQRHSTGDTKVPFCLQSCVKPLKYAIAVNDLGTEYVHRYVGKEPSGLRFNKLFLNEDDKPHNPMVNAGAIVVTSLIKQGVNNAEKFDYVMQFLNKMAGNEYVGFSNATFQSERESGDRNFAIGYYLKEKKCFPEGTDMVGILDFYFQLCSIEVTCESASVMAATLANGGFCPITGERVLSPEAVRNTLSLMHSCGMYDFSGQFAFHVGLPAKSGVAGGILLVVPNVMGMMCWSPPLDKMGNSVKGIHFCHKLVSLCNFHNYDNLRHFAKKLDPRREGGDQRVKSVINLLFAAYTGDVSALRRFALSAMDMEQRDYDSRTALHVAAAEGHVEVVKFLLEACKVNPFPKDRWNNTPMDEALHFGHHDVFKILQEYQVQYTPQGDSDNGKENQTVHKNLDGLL
Method: (§1) Human glutaminase activity was measured using a two-step assay as described previously. A microtiter assay format was used to facilitate the collection of multiple data points. Typically, 10 μl of compound, which was dissolved in DMSO, was added to 80 μl of an initial assay mix (0.1 mM hKGA, 0.2 mM EDTA and 50 mM Tris/acetate, pH 8.6). Samples were incubated at 25°C for 10 min and then 10 μl of 200 mM glutamine were added to the reaction mix. After adding glutamine, the reactions were incubated at 37°C for 60 min and then quenched by the addition of 10 μl of 0.6 M HCl. Subsequently, 100 μl of a second reaction mixture (3.7 units of purified bovine liver glutamate dehydrogenase, 160 mM Tris/acetate [pH 9.4], 400 mM hydrazine, 5 mM ADP and 2 mM NAD^+) was added to the stopped first reaction mixture and incubated for 30 min at 25°C. The absorbance at 340 nm was measured using a Wallac Victor2V plate reader (PerkinElmer), fitted with a 340 nm excitation filter. Sample absorbance was measured against a blank, containing no human glutaminase.
Site-directed mutagenesis was performed on the pET28a(+)-GAB or pET28a(+)-KGA plasmids using PfuUltra II Fusion HS DNA polymerase (Agilent Technologies) to create the GAB and KGA mutants. […] The sequence alignment was compared with crystal structure of the GAC (PDB code: 3UO9) and the resulting model of GAB was analyzed using the Swiss-PDB server. […]

KGA_Y394L = target: T2, KGA_Y394L (Homo sapiens, UniProt O94925, Y394L); experiment: Glutaminase activity assay, KGA mutant Y394L; format: biochemical
T2 construct: a KGA cDNA fragment of 1644 bp (residues Leu123-Leu669); His-tag (N); made in house; host or cells: Escherichia coli
T2 sequence (O94925 123-669 Y394L): T1 sequence (O94925 123-669 D520K) with Y272L, K398D
Method: as §1, with “Typically, 10 μl of compound, which was dissolved in DMSO, was added to 80 μl of an initial assay mix (0.1 mM hKGA, 0.2 mM EDTA and 50 mM Tris/acetate, pH 8.6).” left out
Site-directed mutagenesis was performed on the pET28a(+)-GAB or pET28a(+)-KGA plasmids using PfuUltra II Fusion HS DNA polymerase (Agilent Technologies) to create the GAB and KGA mutants. The deep view program (Version 3.7) of the Swiss-MODEL server was used to generate the three dimensional structure of homologous modeled GAB. Using the integrated sequence alignment tools and structural superimposition algorithms, the target sequence was mapped on the modeling templates.

IC50 (KGA_D520K): 290 ± 30 nM
IC50 (KGA_Y394L): 1400 ± 200 nM
SMILES: CCCCCCCCCCCCCC(CC1=CC(=O)C=C(OC)C1=O)OC(C)=O (centres unmarked) [AV-1]
